Experimental data as given in patent publication US8592457B2, “Isonicotinamide orexin receptor antagonists” (Merck Sharp & Dohme Corp., priority 2008, dated 2013).

Biological target: OX2R (Homo sapiens (Human), UniProt O43614)
Experiment: radioligand binding assay, OX2 receptor
Details: membranes prepared from CHO cells expressing the OX2 receptor
Protocol: The utility of the compounds in accordance with the present invention as orexin receptor OX1R and/or OX2R antagonists may be readily determined without undue experimentation by methodology well known in the art, including the “FLIPR Ca^2+ Flux Assay” (Okumura et al., Biochem. Biophys. Res. Comm. 280:976-981, 2001). In a typical experiment the OX1 and OX2 receptor antagonistic activity of the compounds of the present invention was determined in accordance with the following experimental method. For intracellular calcium measurements, Chinese hamster ovary (CHO) cells expressing the rat orexin-1 receptor or the human orexin-2 receptor, are grown in Iscove's modified DMEM containing 2 mM L-glutamine, […], 1% hypoxanthine-thymidine supplement, 100 U/ml penicillin, 100 ug/ml streptomycin and 10% heat-inactivated fetal calf serum (FCS). The cells are seeded at 20,000 cells/well into Becton-Dickinson black 384-well clear bottom sterile plates coated with poly-D-lysine. All reagents were from GIBCO-Invitrogen Corp. The seeded plates are incubated overnight at 37° C. and 5% CO2. Ala-6,12 human orexin-A as the agonist is prepared as a 1 mM stock solution in 1% bovine serum albumin (BSA) and diluted in assay buffer (HBSS containing 20 mM HEPES, 0.1% BSA and 2.5 mM probenecid, pH7.4) for use in the assay at a final concentration of […]. Test compounds are prepared as 10 mM stock solution in DMSO, then diluted in 384-well plates, first in DMSO, then assay buffer. On the day of the assay, cells are washed 3 times with 100 ul assay buffer and then incubated for 60 min (37° C., 5% CO2) in 60 ul assay buffer containing 1 uM Fluo-4AM ester, 0.02% pluronic acid, and 1% BSA. The dye loading solution is then aspirated and cells are washed 3 times with 100 ul assay buffer. 30 ul of that same buffer is left in each well. Within the Fluorescent Imaging Plate Reader (FLIPR, Molecular Devices), test compounds are added to the plate in a volume of 25 ul, incubated for 5 min and finally 25 ul of agonist is added. Fluorescence is measured for each well at 1 second intervals for 5 minutes and the height of each fluorescence peak is compared to the height of the fluorescence peak induced by 70 pM Ala-6,12 orexin-A with buffer in place of antagonist. […] Alternatively, compound potency can be assessed by a radioligand binding assay (described in Bergman et. al. Bioorg. Med. Chem. Lett. 2008, 18, 1425-1430) in which the inhibition constant (Ki) is determined in membranes prepared from CHO cells expressing either the OX1 or OX2 receptor. The intrinsic orexin receptor antagonist activity of a compound which may be used in the present invention may be determined by these assays.

OX2R, sequence (O43614 whole entry): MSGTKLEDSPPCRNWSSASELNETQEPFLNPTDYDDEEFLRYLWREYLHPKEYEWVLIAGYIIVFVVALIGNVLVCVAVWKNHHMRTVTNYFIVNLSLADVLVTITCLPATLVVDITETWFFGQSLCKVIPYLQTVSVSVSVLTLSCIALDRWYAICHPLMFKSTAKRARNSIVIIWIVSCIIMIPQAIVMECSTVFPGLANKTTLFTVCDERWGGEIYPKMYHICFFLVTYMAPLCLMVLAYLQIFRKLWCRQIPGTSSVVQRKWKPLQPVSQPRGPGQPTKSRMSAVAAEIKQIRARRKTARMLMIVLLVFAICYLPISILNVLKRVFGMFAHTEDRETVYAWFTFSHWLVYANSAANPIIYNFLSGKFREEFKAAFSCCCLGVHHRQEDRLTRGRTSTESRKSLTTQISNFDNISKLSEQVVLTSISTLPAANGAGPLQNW

| SMILES | Ki [nM] |
| --- | --- |
| COc1ncc(CNC(=O)c2cc(-c3cncc(C)c3)ncc2-c2cccc(F)c2)nc1OC [1-13] | 4.5 |
| COc1ccc(CNC(=O)c2cc(-c3cncc(C)c3)ncc2-c2cccc(F)c2)nc1OC [1-16] | 0.91 |
| COc1ccc(CNC(=O)c2cc(-c3cncc(C)c3)ncc2-c2nccs2)nc1OC [7-5, N-[(5,6-Dimethoxypyridin-2-yl)methyl]-5′-methyl-5-(1,3-thiazol-2-yl)-2,3′-bipyridine-4-carboxamide] | 0.95 |
| COc1nc(CNC(=O)c2cc(-c3cncc(C)c3)ncc2-c2nccs2)ccc1C1CC1 [7-7, N-[(5-cyclopropyl-6-methoxypyridin-2-yl)methyl]-5′-methyl-5-(1,3-thiazol-2-yl)-2,3′-bipyridine-4-carboxamide] | 0.97 |
